Experimental findings from patent publication US20220227707A1, “COMPOUNDS AND COMPOSITIONS FOR TREATING CONDITIONS ASSOCIATED WITH NLRP ACTIVITY” (Novartis AG, priority 2019, published 2022) are described below.

Structures are written as SMILES.

The test system of one test is IL-1β production in PMA-differentiated THP-1 cells. Briefly: IL-1β production in PMA-differentiated THP-1 cells stimulated with gramicidin (hTHP-1 assay). The format is cell-based, human. Conditions: Average IC50, hTHP-1 assay containing 2% fetal bovine serum; Table 10, numeric values. The method, then: Procedure 1: IL-1β Production in PMA-Differentiated THP-1 Cells Stimulated with Gramicidin
THP-1 cells were purchased from the American Type Culture Collection and sub-cultured according to instructions from the supplier. Cells were cultured in complete RPMI 1640 (containing 10% heat inactivated FBS, penicillin (100 units/ml) and streptomycin (100 μg/ml)), and maintained in log phase prior to experimental setup. Prior to the experiment, compounds were dissolved in dimethyl sulfoxide (DMSO) to generate a 30 mM stock. The compound stock was first pre-diluted in DMSO to 3, 0.34, 0.042 and 0.0083 mM intermediate concentrations and subsequently spotted using Echo550 liquid handler into an empty 384-well assay plate to achieve desired final concentration (e.g. 100, 33, 11, 3.7, 1.2, 0.41, 0.14, 0.046, 0.015, 0.0051, 0.0017 μM). DMSO was backfilled in the plate to achieve a final DMSO assay concentration of 0.37%. The plate was then sealed and stored at room temperature until required.
THP-1 cells were treated with PMA (Phorbol 12-myristate 13-acetate) (20 ng/ml) for 16-18 hours. On the day of the experiment the media was removed and adherent cells were detached with trypsin for 5 minutes. Cells were then harvested, washed with complete RPMI 1640, spun down, and resuspended in RPMI 1640 (containing 2% heat inactivated FBS, penicillin (100 units/ml) and streptomycin (100 μg/ml). The cells were plated in the 384-well assay plate containing the spotted compounds at a density of 50,000 cells/well (final assay volume 50 μl). Cells were incubated with compounds for 1 hour and then stimulated with gramicidin (5 μM) (Enzo) for 2 hours. Plates were then centrifuged at 340 g for 5 min. Cell free supernatant ([…]) was collected using a 96-channel PlateMaster (Gilson) and the production of IL-1β was evaluated by HTRF (cisbio). The plates were incubated for 18 h at 4° C. and read using the preset HTRF program (donor emission at 620 nm, acceptor emission at 668 nm) of the SpectraMax i3x spectrophotometer (Molecular Devices, software SoftMax 6). A vehicle only control and a dose titration of CRID3 (100-0.0017 μM) were run concurrently with each experiment.
Procedure 2: […] Production in PMA-Differentiated THP-1 Cells Stimulated with Gramicidin
THP-1 cells were purchased from the American Type Culture Collection and sub-cultured according to instructions from the supplier. Prior to experiments, cells were cultured in complete RPMI 1640 (containing 10% heat inactivated FBS, penicillin (100 units/ml) and streptomycin (100 μg/ml)), and maintained in log phase prior to experimental setup. Prior to the experiment THP-1 were treated with PMA (Phorbol 12-myristate 13-acetate) (20 ng/ml) for 16-18 hours. Compounds were dissolved in dimethyl sulfoxide (DMSO) to generate a 30 mM stock. On the day of the experiment the media was removed and adherent cells were detached with trypsin for 5 minutes. Cells were then harvested, washed with complete RPMI 1640, spun down, resuspended in RPMI 1640 (containing 2% heat inactivated FBS, penicillin (100 units/ml) and streptomycin (100 μg/ml). The cells were plated in a 384-well plate at a density of 50,000 cells/well (final assay volume 50 μl). Compounds were first dissolved in assay medium to obtain a 5× top concentration of 500 μM. 10 step dilutions (1:3) were then undertaken in assay medium containing 1.67% DMSO. 5× compound solutions were added to the culture medium to achieve desired final concentration (e.g. 100, 33, 11, 3.7, 1.2, 0.41, 0.14, 0.046, 0.015, 0.0051, 0.0017 μM). Final DMSO concentration was at 0.37%. Cells were incubated with compounds for 1 hour and then stimulated with gramicidin (5 μM) (Enzo) for 2 hours. Plates were then centrifuged at 340 g for 5 min. Cell free supernatant (40 μL) was collected using a 96-channel PlateMaster (Gilson) and the production of IL-1β was evaluated by HTRF (cisbio). A vehicle only control and a dose titration of CRID3 (100-0.0017 μM) were run concurrently with each experiment. […]
Turning to `CN(C)S(C)(=O)=NC(=O)Nc1c2c(cc3c1CCC3)CCC2` (single isomer, unassigned) [Compound 102, N′-((1,2,3,5,6,7-hexahydro-s-indacen-4-yl)carbamoyl)-N,N-dimethylmethanesulfonimidamide], the IC50 was greater than 30 µM.
Still for that read-out and setting: then `CC(CN(C)C)CS(N)(=O)=NC(=O)Nc1c2c(cc3c1CCC3)CCC2` (single isomer, unassigned) [Compound 127, 3-(dimethylamino)-N′-((1,2,3,5,6,7-hexahydro-s-indacen-4-yl)carbamoyl)-2-methylpropane-1-sulfonimidamide], with greater than 30 µM.

The same test, now with this note: Homo sapiens, THP-1, Average IC50, hTHP-1 assay containing 2% fetal bovine serum; Table 10, class symbols.
Compound `CN(C)Cc1ccc(CS(N)(=O)=NC(=O)Nc2c3c(cc4c2CCC4)CCC3)cc1` (single isomer, unassigned) [Compound 106] had an IC50 of 1 to 5 µM.
The same measure, in the same setting: for `CN1CCC(CS(N)(=O)=NC(=O)Nc2c3c(cc4c2CCC4)CCC3)C1` (single isomer, unassigned) [Compound 114] the value was 5 to 30 µM; for `CS(N)(=O)=NC(=O)Nc1c2c(cc3c1CCC3)CCC2` (single isomer, unassigned) [Compound 117], 5 to 30 µM; for `CN(C)CCCC(=O)NS(C)(=O)=NC(=O)Nc1c2c(cc3c1CCC3)CCC2` (single isomer, unassigned) [Compound 119, 4-(dimethylamino)-N—(N-((1,2,3,5,6,7-hexahydro-s-indacen-4-yl)carbamoyl)-S-methylsulfonimidoyl)butanamide], 5 to 30 µM.
Still for that read-out and setting: then `CC(CN(C)C)CS(N)(=O)=NC(=O)Nc1c2c(cc3c1CCC3)CCC2` (single isomer, unassigned) [Compound 122, 3-(dimethylamino)-N′-((1,2,3,5,6,7-hexahydro-s-indacen-4-yl)carbamoyl)-2-methylpropane-1-sulfonimidamide], with 1 to 5 µM; and `NS(=O)(=NC(=O)Nc1c2c(cc3c1CCC3)CCC2)C1Cc2ccccc2C1` (single isomer, unassigned) [Compound 129], with 5 to 30 µM.

Still in this test, the particulars now being: Homo sapiens, THP-1, Average IC50, hTHP-1 assay containing 2% fetal bovine serum; Table 10, numeric values.
`CN(C)S(C)(=O)=NC(=O)Nc1c2c(cc3c1CCC3)CCC2` (single isomer, unassigned) [Compound 101, N′-((1,2,3,5,6,7-hexahydro-s-indacen-4-yl)carbamoyl)-N,N-dimethylmethanesulfonimidamide] showed an IC50 greater than 30 µM.
The same measure, in the same setting: then `CN(C)Cc1ccc(CS(N)(=O)=NC(=O)Nc2c3c(cc4c2CCC4)CCC3)cc1` (single isomer, unassigned) [Compound 105], with greater than 30 µM; and `CN1CCC(CS(N)(=O)=NC(=O)Nc2c3c(cc4c2CCC4)CCC3)C1` (single isomer, unassigned) [Compound 113], with greater than 30 µM; and `CS(N)(=O)=NC(=O)Nc1c2c(cc3c1CCC3)CCC2` (single isomer, unassigned) [Compound 116], with greater than 30 µM.
Still for that read-out and setting: then `CN(C)CCCC(=O)NS(C)(=O)=NC(=O)Nc1c2c(cc3c1CCC3)CCC2` (single isomer, unassigned) [Compound 118, 4-(dimethylamino)-N—(N-((1,2,3,5,6,7-hexahydro-s-indacen-4-yl)carbamoyl)-S-methylsulfonimidoyl)butanamide], with greater than 30 µM; and `CC(CN(C)C)CS(N)(=O)=NC(=O)Nc1c2c(cc3c1CCC3)CCC2` (single isomer, unassigned) [Compound 124, 3-(dimethylamino)-N′-((1,2,3,5,6,7-hexahydro-s-indacen-4-yl)carbamoyl)-2-methylpropane-1-sulfonimidamide], with greater than 30 µM.
`NS(=O)(=NC(=O)Nc1c2c(cc3c1CCC3)CCC2)C1Cc2ccccc2C1` (single isomer, unassigned) [Compound 130] had an IC50 greater than 30 µM.
Same read-out and setting: then `CN1CCC(S(N)(=O)=NC(=O)Nc2c3c(cc4c2CCC4)CCC3)C1` (single isomer, unassigned) [Compound 134, N′-((1,2,3,5,6,7-hexahydro-s-indacen-4-yl)carbamoyl)-1-methylpyrrolidine-3-sulfonimidamide], with greater than 30 µM.
